Results reported in article PMC10607160 (International Journal of Molecular Sciences, 2023).
Read-outs that look alike come from different tables or passages of the source.

Key:
human GnRHR I = molecular target: T1, human GnRHR I (Homo sapiens, UniProt P30968); test: Competitive radioligand binding (125I-DTyr6-His5-GnRH) on membranes from HEK 293 cells stably expressing GnRHR I
T1 construct: expressed in transfected cells
T1 sequence (P30968 1-328): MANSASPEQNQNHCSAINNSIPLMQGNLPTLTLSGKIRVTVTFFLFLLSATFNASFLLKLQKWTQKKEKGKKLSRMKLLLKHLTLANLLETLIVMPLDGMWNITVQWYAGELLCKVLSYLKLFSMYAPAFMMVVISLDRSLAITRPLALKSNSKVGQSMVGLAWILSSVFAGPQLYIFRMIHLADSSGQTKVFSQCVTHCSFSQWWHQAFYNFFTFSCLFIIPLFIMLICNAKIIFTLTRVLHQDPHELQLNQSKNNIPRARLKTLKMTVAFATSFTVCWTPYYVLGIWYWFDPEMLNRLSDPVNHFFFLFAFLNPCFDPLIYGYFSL

[1] = molecular target: E. coli Trx1 / E. coli TrxR (thioredoxin system) (Escherichia coli, UniProt P0AA25); test: Disulfide bond reduction assay by EcoTrx1 (NADPH absorbance at 340 nm); type: biochemical; details: for Absorbance Asample1 / Absorbance Asample2 / Absorbance Average1, 2: A340, with TrxR
Method: The assay employed was based on changes in the absorbance at 340 nm from the oxidation of NADPH using a modified version of the protocol laid out in [90]. Briefly, the decrease in A340 was measured in 96-well plates containing 100 μL of 200 mM potassium phosphate pH 7.4, 1 mM EDTA, 0.1 mg/mL BSA, 200 μM NADPH, 2 μM E. coli Trx1 and 10 nM E. coli TrxR for 5 min at 25 °C with insulin at a final concentration of 0.067 mM (0.2 mM disulfides) (see Table S2). The reduction of con7 was measured at a final concentration of 0.2 mM (see Table S3). Blanks were samples without EcoTrxR.
Figure 4 Reduction of (A) con7 and (B) insulin by EcoTrx1. The assay mixture contains 200 mM potassium phosphate pH 7.4, 1 mM EDTA, 0.1 mg/mL BSA, 200 μM NADPH, 2 μM Escherichia coli Trx1, 10 nM E. coli TrxR, (A) 0.2 mM con7 or (B) 0.067 mM (0.2 mM disulfides) insulin. The reaction was carried out at 25 °C by monitoring the decrease of NADPH absorbance at 340 nm for (A) con7 in the absence ( [drawing 1] ) or presence of TrxR ( [drawing 2] ) and (B) insulin in the absence ( [drawing 3] ) or presence of TrxR ( [drawing 4] ).

[2] = competition with 125I-DTyr6-His5-GnRH, HEK 293 membranes, 4 °C 16-19 h, one-site model, read-out: apparent binding affinity (IC50)

Sequence of E. coli Trx1 / E. coli TrxR (thioredoxin system) (P0AA25 2-109): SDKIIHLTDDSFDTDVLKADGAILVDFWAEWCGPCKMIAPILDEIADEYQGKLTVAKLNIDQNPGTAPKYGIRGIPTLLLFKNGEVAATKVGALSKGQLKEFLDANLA

Molecule `CCNC(=O)[C@@H]1CCCN1C(=O)[C@H](CCCNC(=N)N)NC(=O)[C@H](CC(C)C)NC(=O)[C@@H](CSSCCC(=O)OCCNCCNc1ccc(NCCNCCO)c2c1C(=O)c1c(O)ccc(O)c1C2=O)NC(=O)[C@H](Cc1ccc(O)cc1)NC(=O)[C@H](CO)NC(=O)[C@H](Cc1c[nH]c2ccccc12)NC(=O)[C@H](Cc1c[nH]cn1)NC(=O)[C@@H]1CCC(=O)N1` [con3] has an IC50 (human GnRHR I) of 0.07 nM.
For `CCNC(=O)[C@@H]1CCCN1C(=O)[C@H](CCCNC(=N)N)NC(=O)[C@H](CC(C)C)NC(=O)[C@@H](CCCCNC(=O)CCCCCNC(=O)CCSSCC(=O)NCCCCNc1ccc(O)c2c1C(=O)c1ccccc1C2=O)NC(=O)[C@H](Cc1ccc(O)cc1)NC(=O)[C@H](CO)NC(=O)[C@H](Cc1c[nH]c2ccccc12)NC(=O)[C@H](Cc1c[nH]cn1)NC(=O)[C@@H]1CCC(=O)N1` [con6], the IC50 (human GnRHR I; [2]) was 0.07 nM.
Molecule `CCNC(=O)[C@@H]1CCCN1C(=O)[C@H](CCCNC(=N)N)NC(=O)[C@H](CC(C)C)NC(=O)[C@@H](CS)NC(=O)[C@H](Cc1ccc(O)cc1)NC(=O)[C@H](CO)NC(=O)[C@H](Cc1c[nH]c2ccccc12)NC(=O)[C@H](Cc1c[nH]cn1)NC(=O)[C@@H]1CCC(=O)N1` [analogue 2, [DCys^6, Pro^9-NHEt]GnRH] has an IC50 (human GnRHR I; [2]) of 0.7 nM.
`O=C1c2c(O)ccc(O)c2C(=O)c2c(NCCNCCO)ccc(NCCNCCO)c21` [mitoxantrone, reference compound] was tested, and the “apparent binding affinity (IC50)” value (human GnRHR I; competition with 125I-DTyr6-His5-GnRH, HEK 293 membranes, 4 °C 16-19 h, one-site model) was “did not bind” and the IC50 (human GnRHR I; [2]) was > 1000 nM.
Work on `CCNC(=O)[C@@H]1CCCN1C(=O)[C@H](CCCNC(=N)N)NC(=O)[C@H](CC(C)C)NC(=O)[C@@H](CCCCN)NC(=O)[C@H](Cc1ccc(O)cc1)NC(=O)[C@H](CO)NC(=O)[C@H](Cc1c[nH]c2ccccc12)NC(=O)[C@H](Cc1c[nH]cn1)NC(=O)[C@@H]1CCC(=O)N1` [analogue 4, (DLys^6, Pro^9-NHEt)GnRH] yielded an IC50 (human GnRHR I; [2]) of 2.5 nM.
For insulin, the “Absorbance Asample1” value ([1]; 0 sec) was 0.236, the “Absorbance Asample2” value ([1]; 0 sec) was 0.257 and the “Absorbance Average1, 2” value ([1]; 0 sec) was 0.247. The “Absorbance Asample1” value ([1]; 9 sec) was 0.236, the “Absorbance Asample2” value ([1]; 9 sec) was 0.257 and the “Absorbance Average1, 2” value ([1]; 9 sec) was 0.247. For the same molecule, the “Absorbance Asample1” value ([1]; 18 sec) was 0.236, the “Absorbance Asample2” value ([1]; 18 sec) was 0.257 and the “Absorbance Average1, 2” value ([1]; 18 sec) was 0.247. The “Absorbance Asample1” value ([1]; 27 sec) was 0.235, the “Absorbance Asample2” value ([1]; 27 sec) was 0.257 and the “Absorbance Average1, 2” value ([1]; 27 sec) was 0.246. For the same molecule, the “Absorbance Asample1” value ([1]; 36 sec) was 0.236, the “Absorbance Asample2” value ([1]; 36 sec) was 0.256 and the “Absorbance Average1, 2” value ([1]; 36 sec) was 0.246. For the same molecule, the “Absorbance Asample1” value ([1]; 45 sec) was 0.235, the “Absorbance Asample2” value ([1]; 45 sec) was 0.256 and the “Absorbance Average1, 2” value ([1]; 45 sec) was 0.246. For the same molecule, the “Absorbance Asample1” value ([1]; 54 sec) was 0.235, the “Absorbance Asample2” value ([1]; 54 sec) was 0.255 and the “Absorbance Average1, 2” value ([1]; 54 sec) was 0.245. For the same molecule, the “Absorbance Asample1” value ([1]; 63 sec) was 0.235, the “Absorbance Asample2” value ([1]; 63 sec) was 0.256 and the “Absorbance Average1, 2” value ([1]; 63 sec) was 0.246. The “Absorbance Asample1” value ([1]; 72 sec) was 0.235, the “Absorbance Asample2” value ([1]; 72 sec) was 0.255 and the “Absorbance Average1, 2” value ([1]; 72 sec) was 0.245. For the same molecule, the “Absorbance Asample1” value ([1]; 81 sec) was 0.233, the “Absorbance Asample2” value ([1]; 81 sec) was 0.254 and the “Absorbance Average1, 2” value ([1]; 81 sec) was 0.244. The “Absorbance Asample1” value ([1]; 90 sec) was 0.235, the “Absorbance Asample2” value ([1]; 90 sec) was 0.255 and the “Absorbance Average1, 2” value ([1]; 90 sec) was 0.245. For the same molecule, the “Absorbance Asample1” value ([1]; 99 sec) was 0.234, the “Absorbance Asample2” value ([1]; 99 sec) was 0.254 and the “Absorbance Average1, 2” value ([1]; 99 sec) was 0.244. The “Absorbance Asample1” value ([1]; 108 sec) was 0.234, the “Absorbance Asample2” value ([1]; 108 sec) was 0.255 and the “Absorbance Average1, 2” value ([1]; 108 sec) was 0.245. The “Absorbance Asample1” value ([1]; 117 sec) was 0.235, the “Absorbance Asample2” value ([1]; 117 sec) was 0.253 and the “Absorbance Average1, 2” value ([1]; 117 sec) was 0.244. For the same molecule, the “Absorbance Asample1” value ([1]; 126 sec) was 0.234, the “Absorbance Asample2” value ([1]; 126 sec) was 0.253 and the “Absorbance Average1, 2” value ([1]; 126 sec) was 0.244. For the same molecule, the “Absorbance Asample1” value ([1]; 135 sec) was 0.235, the “Absorbance Asample2” value ([1]; 135 sec) was 0.253 and the “Absorbance Average1, 2” value ([1]; 135 sec) was 0.244. The “Absorbance Asample1” value ([1]; 144 sec) was 0.234, the “Absorbance Asample2” value ([1]; 144 sec) was 0.253 and the “Absorbance Average1, 2” value ([1]; 144 sec) was 0.244. The “Absorbance Asample1” value ([1]; 153 sec) was 0.232, the “Absorbance Asample2” value ([1]; 153 sec) was 0.252 and the “Absorbance Average1, 2” value ([1]; 153 sec) was 0.242. The “Absorbance Asample1” value ([1]; 162 sec) was 0.233, the “Absorbance Asample2” value ([1]; 162 sec) was 0.253 and the “Absorbance Average1, 2” value ([1]; 162 sec) was 0.243. The “Absorbance Asample1” value ([1]; 171 sec) was 0.233, the “Absorbance Asample2” value ([1]; 171 sec) was 0.252 and the “Absorbance Average1, 2” value ([1]; 171 sec) was 0.243. The “Absorbance Asample1” value ([1]; 180 sec) was 0.233, the “Absorbance Asample2” value ([1]; 180 sec) was 0.252 and the “Absorbance Average1, 2” value ([1]; 180 sec) was 0.243. The “Absorbance Asample1” value ([1]; 189 sec) was 0.232, the “Absorbance Asample2” value ([1]; 189 sec) was 0.252 and the “Absorbance Average1, 2” value ([1]; 189 sec) was 0.242. For the same molecule, the “Absorbance Asample1” value ([1]; 198 sec) was 0.233, the “Absorbance Asample2” value ([1]; 198 sec) was 0.252 and the “Absorbance Average1, 2” value ([1]; 198 sec) was 0.243. For the same molecule, the “Absorbance Asample1” value ([1]; 207 sec) was 0.232, the “Absorbance Asample2” value ([1]; 207 sec) was 0.252 and the “Absorbance Average1, 2” value ([1]; 207 sec) was 0.242. The “Absorbance Asample1” value ([1]; 216 sec) was 0.233, the “Absorbance Asample2” value ([1]; 216 sec) was 0.252 and the “Absorbance Average1, 2” value ([1]; 216 sec) was 0.243. For the same molecule, the “Absorbance Asample1” value ([1]; 225 sec) was 0.232, the “Absorbance Asample2” value ([1]; 225 sec) was 0.252 and the “Absorbance Average1, 2” value ([1]; 225 sec) was 0.242. The “Absorbance Asample1” value ([1]; 234 sec) was 0.232, the “Absorbance Asample2” value ([1]; 234 sec) was 0.252 and the “Absorbance Average1, 2” value ([1]; 234 sec) was 0.242. The “Absorbance Asample1” value ([1]; 243 sec) was 0.231, the “Absorbance Asample2” value ([1]; 243 sec) was 0.251 and the “Absorbance Average1, 2” value ([1]; 243 sec) was 0.241. For the same molecule, the “Absorbance Asample1” value ([1]; 252 sec) was 0.231, the “Absorbance Asample2” value ([1]; 252 sec) was 0.251 and the “Absorbance Average1, 2” value ([1]; 252 sec) was 0.241. The “Absorbance Asample1” value ([1]; 261 sec) was 0.230, the “Absorbance Asample2” value ([1]; 261 sec) was 0.250 and the “Absorbance Average1, 2” value ([1]; 261 sec) was 0.240. The “Absorbance Asample1” value ([1]; 270 sec) was 0.230, the “Absorbance Asample2” value ([1]; 270 sec) was 0.250 and the “Absorbance Average1, 2” value ([1]; 270 sec) was 0.240. For the same molecule, the “Absorbance Asample1” value ([1]; 279 sec) was 0.231, the “Absorbance Asample2” value ([1]; 279 sec) was 0.251 and the “Absorbance Average1, 2” value ([1]; 279 sec) was 0.241. The “Absorbance Asample1” value ([1]; 288 sec) was 0.230, the “Absorbance Asample2” value ([1]; 288 sec) was 0.250 and the “Absorbance Average1, 2” value ([1]; 288 sec) was 0.240. The “Absorbance Asample1” value ([1]; 297 sec) was 0.229, the “Absorbance Asample2” value ([1]; 297 sec) was 0.250 and the “Absorbance Average1, 2” value ([1]; 297 sec) was 0.240. For the same molecule, the “reduction of disulfide bond by the thioredoxin system” value ([1]; decrease of NADPH absorbance over time in samples containing TrxR) was “successful”.
